Results as given in patent publication US20220251504A1, “FUNCTIONAL ASTROCYTES DERIVED FROM PLURIPOTENT STEM CELLS AND METHODS OF MAKING AND USING THE SAME” (New York Stem Cell Foundation, Inc., priority 2019, published 2022).

Tests used:
Type in all cases: cell-based, human
CD49f^+ astrocytes = assay: Intracellular Ca2+ imaging of hiPSC-astrocytes after ATP application; conditions: 100 μM ATP, 60s application
From the text: See also FIG. 32. […] Bar graphs show the maximum number of evoked spikes per 1 second stimulus (n=8/18), the maximum firing frequency in hertz (Hz) (n=5/15), the amplitude adaptation ratio between first and last action potential (n=5/15), the maximum action potential height (mV) (n=8/17), and the frequency of spontaneous excitatory post-synaptic currents (Hz) (n=5/9) in hiPSC-neurons at day 50 when cultured alone vs. with astrocytes during days 33-50. Dots correspond to 3 different lines. Each dot represents an independent cell. n=neurons alone/neurons co-cultured with astrocytes. Error bars show mean±standard deviation. p-values were calculated using a two-tailed, unpaired t-test. […] Scale bar, 50 μm. […] Error bars show mean±standard deviation (n=3 technical replicates). p-values were calculated using a two-tailed, unpaired t-test. […] Error bars show mean±standard deviation (n=4 technical replicates). p-values were calculated using a one-way ANOVA with Dunnett's correction for multiple comparisons. […] Error bars show mean±standard deviation. p-values were calculated using a one-way ANOVA with Dunnett's correction for multiple comparisons.
CD49f^+ astrocytes from three iPSC lines were cultured on glass coverslips coated with 0.1 mg/ml poly-L-ornithine followed by 10 μg/ml laminin. […] Fluorescence was recorded at 2 Hz by a cooled CCD camera (Hamamatsu™ Orca R^2). […]

[1] = system: OLIG2-GFP knock-in hESC reporter line; assay: OLIG2-GFP expression by flow cytometry during differentiation of hESC reporter line; conditions: RA 100 nM from beginning of induction, SHH 100 ng/ml from day 8, or SAG replacing SHH, added to RA
Method: RA at a concentration of 100 nM from day 0 results in the highest yield of GFP^+ cells. […] Negative: human embryonic stem cell (hESC) line RUES1. […] Error bars are SEM (N=3). […] Only GFP^+ cells form spheres, providing enrichment to the GFP^+ population.
An OLIG2-GFP knock-in hESC reporter line was used to track OLIG2^+ progenitors by live fluorescent imaging. First, PAX6^+ cells were induced using dual inhibition of SMAD signaling in adherent cultures. Next, to mimic the embryonic spinal cord environment, different concentrations of RA and/or SHH were applied at various times and quantified OLIG2-GFP expression through flow cytometry (FIG. 2A).
At day 12, cells were detached and placed into low-attachment plates to promote their aggregation into spheres. The minimum number of cells required to form a sphere was at least 100 cells, and we noted that the majority of cells in the spheres were GFP^+. […]
(§1) Cells were enzymatically harvested by Accutase™ treatment for 25 minutes at 37° C. to obtain a single cell suspension. Cells were then re-suspended in 100 μl of their respective medium containing the appropriate amount of either primary antibody or fluorescence-conjugated antibodies and were incubated on ice for 30 minutes shielded from light. […] Flow cytometry data were analyzed using BD FACSDiva™ software.

O4^+ cells = assay: FACS analysis for O4+ cells at day 75 of differentiation; conditions: RA only vs RA and SAG in the first 12 days of differentiation
Method: Endogenous SHH levels are higher in the samples that were not exposed to SHH/SAG. Error bars are SEM (N=3). […] Negative Control: APC-conjugated secondary antibody only. […] A substantial population of GFP^+ cells is present only under the dual inhibition of SMAD proteins, indicating a synergistic effect between RA and the dual inhibition of SMAD. DSi: Dual SMAD inhibition; SB: SB431542; LDN: […].
Spheres were plated on pO/L plates, as described above, in PDGF Medium at day 30, changing 2/3 of the PDGF Medium every other day until day 75 of differentiation. The appearance of O4^+ cells was assessed by live O4 staining from day 55 onwards (FIG. 6). At day 75, O4+ OPCs could be isolated by FACS (FIG. 7I). Alternatively, for terminal oligodendrocyte differentiation (FIG. 7G, 7H), cells were cultured in Glial Medium from day 75, changing 2/3 of the medium every 3 days for two weeks.
as §1

Row | Compound | [Ca^2+]i response to extracellular ATP (CD49f^+ astrocytes) | OLIG2^+ progenitors [1] | decrease in the O4^+ population in cells not provided with SAG (O4^+ cells)
1 | Nc1ncnc2c1ncn2[C@@H]1O[C@H](COP(=O)(O)OP(=O)(O)OP(=O)(O)O)[C@@H](O)[C@H]1O [ATP] | robustly responded |  | 
2 | CC1=C(/C=C/C(C)=C/C=C/C(C)=C/C(=O)O)C(C)(C)CCC1 [RA, all trans retinoic acid] |  | 40.6% | 
3 | CNC1CCC(N(Cc2cccc(-c3ccncc3)c2)C(=O)c2sc3ccccc3c2Cl)CC1 (stereo not shown) [SAG] |  | 70.1% | 56%
